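Cells were grown in 96-well plates and exposed to each compound for 48 hours at five concentrations; endpoints were interpolated linearly between bracketing concentrations, or set to the highest concentration if not reached. The concentration for full growth arrest is given as TGI.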
Assays:
Experiment in all cases: NCI tumour cell line growth inhibition, 48 h
[1] = test system: HCT-15 colon
[2] = test system: SNB-75 CNS
[3] = test system: MALME-3M melanoma
[4] = test system: U251 CNS
[5] = test system: UACC-62 melanoma
[6] = test system: SK-MEL-28 melanoma
[7] = test system: EKVX NSCLC
[8] = test system: MDA-MB-435
[9] = test system: RPMI-8226 leukemia
[10] = test system: CCRF-CEM leukemia
[11] = test system: ACHN renal
[12] = test system: HOP-62 NSCLC
[13] = test system: BT-549 breast
[14] = test system: NCI-H23 lung
[15] = test system: SR leukemia
[16] = test system: PC-3 prostate
[17] = test system: RXF 393 renal
[18] = test system: MCF7 breast
[19] = test system: SK-MEL-2 melanoma
[20] = test system: COLO 205 colon
[21] = test system: HCT-116 colon
[22] = test system: SN12C renal
[23] = test system: M14 melanoma
[24] = test system: SW-620 colon
[25] = test system: K-562 leukemia
[26] = test system: OVCAR-5 ovarian
[27] = test system: DU-145 prostate
[28] = test system: SF-268 CNS
[29] = test system: HOP-92 NSCLC
[30] = test system: NCI-H226 lung
[31] = test system: UO-31 renal
[32] = test system: HT29 colon
[33] = test system: T-47D breast
[34] = test system: MDA-N
[35] = test system: IGROV1 ovarian
[36] = test system: 786-0 renal
[37] = test system: OVCAR-8 ovarian
[38] = test system: NCI-H522 lung
[39] = test system: NCI/ADR-RES ovarian
[40] = test system: A498 renal
[41] = test system: NCI-H460 lung
[42] = test system: MOLT-4 leukemia
[43] = test system: OVCAR-4 ovarian
[44] = test system: A549 NSCLC
[45] = test system: UACC-257 melanoma
[46] = test system: SNB-19 CNS
[47] = test system: KM12 colon
[48] = test system: SF-539 CNS
[49] = test system: CAKI-1 renal
[50] = test system: MDA-MB-231 breast
[51] = test system: TK-10 renal
[52] = test system: LOX IMVI melanoma
[53] = test system: HL-60(TB) leukemia
[54] = test system: HCC-2998 colon
[55] = test system: OVCAR-3 ovarian
[56] = test system: SK-OV-3 ovarian
[57] = test system: HS 578T breast
[58] = test system: SF-295 CNS

C[C@H](CCC(=O)O)[C@H]1CC[C@H]2[C@@H]3[C@H](O)C[C@@H]4C[C@H](O)CC[C@]4(C)[C@H]3CC[C@]12C
TGI [1]: > 100 µM
TGI [2]: 57.4 µM
TGI [3]: > 100 µM
TGI [4]: > 100 µM
TGI [5]: > 100 µM
TGI [6]: > 100 µM
TGI [7]: > 100 µM
TGI [8]: > 100 µM
TGI [9]: 54.8 µM
TGI [10]: > 100 µM
TGI [11]: > 100 µM
TGI [12]: > 100 µM
TGI [13]: > 100 µM
TGI [14]: 64.7 µM
TGI [15]: 47.4 µM
TGI [16]: > 100 µM
TGI [17]: > 100 µM
TGI [18]: > 100 µM
TGI [19]: 53.5 µM
TGI [20]: 45.7 µM
TGI [21]: > 100 µM
TGI [22]: > 100 µM
TGI [23]: 85.2 µM
TGI [24]: > 100 µM
TGI [25]: > 100 µM
TGI [26]: > 100 µM
TGI [27]: > 100 µM
TGI [28]: > 100 µM
TGI [29]: 91.1 µM
TGI [30]: 78.3 µM
TGI [31]: 58.5 µM
TGI [32]: 87.4 µM
TGI [33]: > 100 µM
TGI [34]: > 100 µM
TGI [35]: > 100 µM
TGI [36]: > 100 µM
TGI [37]: 37.7 µM
TGI [38]: > 100 µM
TGI [39]: > 100 µM
TGI [40]: > 100 µM
TGI [41]: 92 µM
TGI [42]: 62 µM
TGI [43]: > 100 µM
TGI [44]: > 100 µM
TGI [45]: > 100 µM
TGI [46]: > 100 µM
TGI [47]: > 100 µM
TGI [48]: 62.1 µM
TGI [49]: > 100 µM
TGI [50]: > 100 µM
TGI [51]: > 100 µM
TGI [52]: > 100 µM
TGI [53]: > 100 µM
TGI [54]: 79.9 µM

COC(OC)C1OC(CO)C(n2cc(F)c(=O)[nH]c2=O)C1O (centres undefined)
TGI [1]: > 100 µM
TGI [2]: > 100 µM
TGI [4]: > 100 µM
TGI [55]: > 100 µM
TGI [5]: > 100 µM
TGI [6]: > 100 µM
TGI [7]: > 100 µM
TGI [8]: > 100 µM
TGI [9]: > 100 µM
TGI [10]: > 100 µM
TGI [11]: > 100 µM
TGI [12]: > 100 µM
TGI [13]: > 100 µM
TGI [14]: > 100 µM
TGI [16]: > 100 µM
TGI [17]: > 100 µM
TGI [18]: > 100 µM
TGI [19]: > 100 µM
TGI [20]: 28.5 µM
TGI [21]: > 100 µM
TGI [22]: > 100 µM
TGI [23]: > 100 µM
TGI [24]: > 100 µM
TGI [25]: > 100 µM
TGI [26]: > 100 µM
TGI [27]: 64.4 µM
TGI [28]: > 100 µM
TGI [29]: > 100 µM
TGI [56]: > 100 µM
TGI [30]: > 100 µM
TGI [31]: > 100 µM
TGI [32]: > 100 µM
TGI [33]: > 100 µM
TGI [34]: > 100 µM
TGI [35]: > 100 µM
TGI [37]: > 100 µM
TGI [38]: > 100 µM
TGI [39]: > 100 µM
TGI [57]: > 100 µM
TGI [40]: > 100 µM
TGI [41]: > 100 µM
TGI [42]: > 100 µM
TGI [43]: > 100 µM
TGI [44]: > 100 µM
TGI [45]: > 100 µM
TGI [46]: > 100 µM
TGI [47]: > 100 µM
TGI [48]: > 100 µM
TGI [49]: > 100 µM
TGI [50]: > 100 µM
TGI [51]: > 100 µM
TGI [58]: > 100 µM
TGI [52]: > 100 µM
TGI [53]: > 100 µM
TGI [54]: > 100 µM
